Laboratory results from PubChem BioAssay (NCI).
Where “and” joins values, the source holds several entries; their conditions need not be identical. Equal values may be shown once.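 96-well plates; 48 h exposure; 5 concentrations. Endpoints by linear interpolation between flanking doses. Not reached: highest tested concentration assigned. GI50: concentration for 50% inhibition of growth. Definition used: TGI = concentration required for complete inhibition of growth.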

How the values were obtained:
Experiment in all cases: NCI tumour cell line growth inhibition, 48 h
ACHN renal = system: ACHN renal
BT-549 breast = system: BT-549 breast
K-562 leukemia = system: K-562 leukemia
MALME-3M melanoma = system: MALME-3M melanoma
MOLT-4 leukemia = system: MOLT-4 leukemia
NCI-H226 lung = system: NCI-H226 lung
NCI-H460 lung = system: NCI-H460 lung
T-47D breast = system: T-47D breast
UACC-257 melanoma = system: UACC-257 melanoma
UO-31 renal = system: UO-31 renal

SMILES	GI50 (ACHN renal) [µM]	TGI (ACHN renal)	GI50 (BT-549 breast) [µM]	TGI (BT-549 breast) [µM]	GI50 (K-562 leukemia) [µM]	TGI (K-562 leukemia)	GI50 (MALME-3M melanoma)	TGI (MALME-3M melanoma)	GI50 (MOLT-4 leukemia)	TGI (MOLT-4 leukemia)	GI50 (NCI-H226 lung)	TGI (NCI-H226 lung)	GI50 (NCI-H460 lung) [µM]	TGI (NCI-H460 lung)	GI50 (T-47D breast) [µM]	TGI (T-47D breast) [µM]	GI50 (UACC-257 melanoma) [µM]	TGI (UACC-257 melanoma)	GI50 (UO-31 renal) [µM]	TGI (UO-31 renal)
COc1ccc(-c2cc3cccc(OC)c3c(=O)o2)cc1OC	59.3	> 100 µM	0.636	88	26.3	> 100 µM	> 100 µM	> 100 µM	47.9 µM	> 100 µM	2.35 µM	86.5 µM	31.1	> 100 µM	28.3	> 100	92.8	> 100 µM	95.4	> 100 µM
COCCNCC(O)Cn1c2ccc(Cl)cc2c2cc(Cl)ccc21 (stereo unspecified)	1.87	3.76 µM	2.06	4.36	2.19	4.64 µM	1.98 µM	3.89 µM	1.97 µM	4.05 µM	2.25 µM	5.92 µM	1.86	3.6 µM	1.97	4.03	1.68	3.35 µM	1.75	4.17 µM
COc1cc(-c2c3c(cn2S(=O)(=O)c2ccccc2)-c2nc(N)sc2CC3)cc(OC)c1OC	0.797	31.1 µM	2.75	43.1	0.431	> 100 µM	0.449 µM	38 µM	0.701 µM	43.1 µM	11.2 µM	47.4 µM	0.51	18.4 µM	0.433	20.6	10.3	60.1 µM	2.98	> 100 µM
O=S(=O)(Nc1ccc(-c2nc(-c3cccc(OCCN4CCOCC4)c3)c(-c3ccnc(Br)c3)[nH]2)cc1)c1ccccc1	2.99	> 100 µM	3.02	> 100	2.32	> 100 µM	2.2 µM	56.9 µM	2.59 µM	> 100 µM	3.1 µM	40.6 µM	3.45	> 100 µM	2.86	28.6	3.03	12 µM	2.92	> 100 µM
CC1(C)CCC(S(=O)(=O)c2ccc3c(c2)/C(=N\O)c2cc(S(=O)(=O)N4CCC(O)(c5cccc(C(F)(F)F)c5)CC4)ccc2-3)CC1	0.0431	1.41 µM	0.054	0.226	0.0219	0.0492 µM	0.0216 µM	0.053 µM	0.0199 µM	0.0444 µM	0.0292 µM	0.0988 µM	0.0261	0.0613 µM	0.0192	0.0414	0.0665	1.11 µM	1.67	5.49 µM
Cc1nc2sc(C(=O)Nc3cccc4ccccc34)c(N)c2cc1C(C)O (stereo unspecified)	0.284	> 50 µM	0.264	> 13.8	0.157	> 50 µM	0.265 µM	> 50 µM	0.227 µM	> 50 µM	0.28 µM	> 50 µM	0.184	9.91 µM	0.183	> 50	> 50	> 50 µM	0.268	> 48.3 µM
O=C(NNc1nc2cc(F)ccc2n2c(CN3CCOCC3)ccc12)c1ccccc1	0.079	1.41 µM	0.559	6.57	0.336	4.21 µM	0.379 µM	1.81 µM	0.175 µM	2.18 µM	0.45 µM	2.4 µM	0.0724	1.32 µM	0.36	2.24	0.456	3.85 µM	0.0574	1.3 µM
CCOc1ccc(NC(=O)Nc2cc(C(C)C)ccc2C)cc1	4.37	14.7 µM	1.58	6.24	21.4	> 100 µM	3.74 µM	18.2 µM	9.57 µM	> 100 µM	10.2 µM	50.1 µM	9.22	> 100 µM	8.94	> 100	8.83	44.9 µM	4.82	16.9 µM
CN(C(=O)c1ccc(F)cc1C(F)(F)F)C1CCN(c2nnc(-c3ccnn3C)c3ccccc23)CC1	51.7	> 100 µM	33.3	> 100	27.3	> 100 µM	23.6 µM	> 100 µM	23.2 µM	68.8 µM	28.2 µM	> 100 µM	53.9	> 100 µM	10.6	99.4	23.2	> 100 µM	22	> 100 µM
COc1ccc(OC)c(/C=C/[N+](=O)[O-])c1		4.49 µM and 3.28 µM		11.9	2.08	6.96 µM and 14.8 µM	2.19 µM and 5.66 µM	7.26 µM and 11 µM	1.1 µM and 2.52 µM	5.31 µM and 9.59 µM	1.93 µM and 4.06 µM	4.41 µM and 10.2 µM	2.91	9.32 µM and 13.9 µM		46.8	3.19	11.7 µM and 8.28 µM		3.39 µM and 5.62 µM
C[C@@H]1O[C@@H](O[C@H]2C[C@@H](O)[C@]3(CO)C4C(CC[C@]3(O)C2)[C@@]2(O)CC[C@H](C3=CC(=O)OC3)[C@@]2(C)C[C@H]4O)[C@H](O)[C@H](O)[C@H]1O (stereo partly specified)	0.0148	0.0461 µM	0.0186	0.0624	0.0323	0.162 µM	0.0197 µM	0.0828 µM	0.0128 µM	0.0314 µM	0.0741 µM	0.154 µM	0.0133	0.0376 µM	0.0215	0.0847	0.0626	0.129 µM	0.0165	0.0618 µM
OCC1SC(n2cnc3cncnc32)C(O)C1O (stereo unspecified)	> 100	> 100 µM	> 100	> 100	> 100	> 100 µM	> 100 µM	> 100 µM	> 100 µM	> 100 µM	> 100 µM	> 100 µM	> 100	> 100 µM	> 100	> 100	> 100	> 100 µM	> 100	> 100 µM
